Data on 94 compounds can be found in the SangsterLogP compilation.

Molecules are shown by their SMILES.

Test in one data set: not given
Conditions: not given
A word on the logP: it is a log measure of how a compound divides between an organic and an aqueous phase. A low value points to a more hydrophilic compound. Consider `Brc1cc2oc3cc(Br)c(Br)c(Br)c3c2cc1Br`, for which the logP was found to be 7.2.

`Brc1cc2c(cc1Br)Oc1cc(Br)c(Br)cc1O2` registered a logP of 6.5. Compound `Clc1cc2oc3c(Cl)cc(Cl)c(Cl)c3c2c(Cl)c1Cl` gave a logP of 6.82. For the compound `Clc1cc2oc3cc(Cl)c(Cl)cc3c2cc1Cl`, the logP is 5.83. Consider `Brc1cc2oc3ccc(Br)c(Br)c3c2cc1Br`, for which the logP is 6.2.

Take `Brc1cc2oc3c(Br)c(Br)c(Br)cc3c2cc1Br`: the logP turned out to be 7.04. `Brc1cc2oc3cc(Br)c(Br)cc3c2cc1Br` had a logP of 5.98.

A short description of the next data set: method code SF-AS, from DOI: 10.1248/bpb1978.4.759, PMID: 7320829.
Conditions: not given
The compound `O=C1NC(=O)C(c2ccccc2)(c2ccc(O)cc2)N1` (centres undefined) showed a logP of 1.72. The same measure, in the same setting: the same measure for `Cc1ccccc1S(=O)(=O)N1C(=O)NC(=O)C1(c1ccccc1)c1ccccc1`: 4; for `CC1(C)NC(=O)NC1=O`: -0.48. Still for that read-out and setting: the same measure for `CCC1(c2ccccc2)C(=O)NC(=O)N1S(=O)(=O)c1ccccc1` (centres undefined): 2.44; for `O=C1NC(=O)C(c2ccccc2)(c2ccccc2)N1S(=O)(=O)c1ccc(Cl)cc1`: 3.48.

Staying with this data set, now noted: pH 7.0.
Consider `O=C1NC(=O)C(c2ccccc2)(c2ccccc2)N1S(=O)(=O)c1ccccc1`, for which the logD came to 1.93.

The next data set in a line: method code SF-AS, from DOI: 10.1584/jpestics.8.69.
Conditions: not given
`CCC(C(c1ccc(OC)cc1)c1ccc(OC)cc1)[N+](=O)[O-]` (centres undefined) had a logP of 4.45. On the same count and under the same terms, the same measure for `ClC(Cl)(Cl)C(c1ccccc1)c1ccccc1`: 4.87. `COc1ccc(C(c2ccc(OC)cc2)C(F)(F)F)cc1` yielded a logP of 4.76. `COc1ccc(C(C[N+](=O)[O-])c2ccc(OC)cc2)cc1` showed a logP of 3.57.

Consider `COc1ccc(C(c2ccc(OC)cc2)C(C)[N+](=O)[O-])cc1` (centres undefined), for which the logP was determined as 3.87. Same read-out and setting: the same measure for `COc1ccc(C(C)c2ccc(OC)cc2)cc1`: 4.52.

Test in a further data set: not given
Conditions: not given
The source holds these as a separate data set.
For the compound `Cn1c(=O)nc(-c2ccccc2)c2cc(Cl)ccc21`, the logP amounted to 2.38. On the same count and under the same terms, the same measure for `Cn1c(=O)nc(-c2ccccc2)c2ccc(Cl)cc21`: 2.36. Compound `COc1ccc2c(c1)c(-c1ccccc1)nc(=O)n2C` displayed a logP of 1.91.

Turning to `Cn1c(=O)nc(-c2ccccc2)c2cc(S(C)(=O)=O)ccc21`, the logP came out at 0.59. The compound `Cn1c(=O)nc(-c2ccccc2)c2cc(C(F)(F)F)ccc21` registered a logP of 2.69. Same read-out and setting: the same measure for `Cn1c(=O)nc(-c2ccccc2)c2cc(F)ccc21`: 1.87.

Another data set can be described thus: method code SF, from DOI: 10.1023/a:1016286026462, PMID: 8570535.
Conditions: not given
`COc1ccc(C(=O)c2ccccc2)c(O)c1` yielded a logP of 3.82. `Cc1ccc(C=C2C(=O)[C@]3(C)CCC2C3(C)C)cc1`: the logP stood at 5.13. `CCCCCCCCOC(=O)c1ccc(N(C)C)cc1` came in with a logP of 5.75. `CCCCOC(=O)c1ccccc1C(=O)OCCCC` displayed a logP of 4.39. On the same count and under the same terms, the same measure for `COc1cc(C(C)(C)C)c(O)c(C(C)(C)C)c1`: 4.64. Still for that read-out and setting: the same measure for `CC(C)c1ccc(C(=O)CC(=O)c2ccccc2)cc1`: 6.51.

Test in another data set: not given
Conditions: not given
The source holds these as a separate data set.
On to `C=CCOc1ccccc1OCC(CNC(C)C)OC(=O)C(C)C` (centres undefined), for which the logP came to 3.77. Same read-out and setting: the same measure for `C=CCOc1ccccc1OCC(CNC(C)C)OC(=O)C1CC1` (centres undefined): 3.01. On the same count and under the same terms, the same measure for `C=CCOc1ccccc1OCC(CNC(C)C)OC(=O)c1ccc([N+](=O)[O-])cc1` (centres undefined): 5.22; for `C=CCOc1ccccc1OCC(CNC(C)C)OC(=O)CC` (centres undefined): 3.76. As to `C=CCOc1ccccc1OCC(CNC(C)C)OC(=O)CCC` (centres undefined), the logP was determined as 3.95.

The compound `C=CCOc1ccccc1OCC(CNC(C)C)OC(=O)C(C)(C)C` (centres undefined) displayed a logP of 3.54. `C=CCOc1ccccc1OCC(CNC(C)C)OC(C)=O` (centres undefined) came in with a logP of 3.82.

Test in another data set: not given
Conditions: not given
This is another data set of the same source.
`CC(C)(CCC(CO[N+](=O)[O-])O[N+](=O)[O-])C(=O)Oc1ccccc1C(=O)O` (centres undefined) yielded a logP of 3.33.

`CC(C)(CO[N+](=O)[O-])C(=O)Oc1ccccc1C(=O)O`: the logP was 2.32. Compound `O=C(CCO[N+](=O)[O-])Oc1ccccc1C(=O)O` yielded a logP of 1.6. Take `O=C(CCCC(CO[N+](=O)[O-])O[N+](=O)[O-])Oc1ccccc1C(=O)O` (centres undefined): the logP amounted to 2.62. Same read-out and setting: the same measure for `O=C(CCCCO[N+](=O)[O-])Oc1ccccc1C(=O)O`: 2.21. For `O=C(CCCCC(CO[N+](=O)[O-])O[N+](=O)[O-])Oc1ccccc1C(=O)O` (centres undefined), the logP was 2.97. As for `O=C(CCCCCCO[N+](=O)[O-])Oc1ccccc1C(=O)O`, the logP is 3.22.

A short description of the next data set: method code SF-HPLC, from DOI: 10.1016/0378-5173(88)90064-6. As to conditions: pH 7.4.
As for `CCN(CC)C(=O)COC(=O)c1ccccc1O`, the logD was found to be 1.99.

Regarding `CC(=O)c1ccc2cc(C(C)C(=O)OCC(=O)N(C)CC(N)=O)ccc2c1` (centres undefined), the logD was found to be 1.37. With `CN(C)C(=O)COC(=O)c1ccccc1O`, the logD was 1.21. Same read-out and setting: the same measure for `CCN(CC)C(=O)COC(=O)C(C)c1ccc2cc(C(C)=O)ccc2c1` (centres undefined): 3.32; for `CC(=O)c1ccc2cc(C(C)C(=O)OCC(=O)N(CCO)CCO)ccc2c1` (centres undefined): 1.7.

For the compound `CC(=O)c1ccc2cc(C(C)C(=O)OCC(N)=O)ccc2c1` (centres undefined), the logD came out at 2.06.

The nature of the next data set: method code SF-AS, from DOI: 10.1016/0041-008x(67)90079-8.
Conditions: not given
The compound `Clc1cccc(Cl)n1` gave a logP of 2.15. In the case of `Clc1cccnc1Cl`, the logP turned out to be 2.11. The same measure, in the same setting: the same measure for `Clc1ccc(Cl)c(Cl)n1`: 2.77; for `Clc1cnc(Cl)c(Cl)c1`: 3.11; for `Clc1cncc(Cl)c1`: 2.56. Same read-out and setting: the same measure for `Clc1cc(Cl)nc(Cl)c1`: 2.68.

A further data set is described as follows: method code SF-AS, from PMID: 7149911. The note with it: pH 8.9.
Consider `CN(N=O)C(=O)Nc1ccccc1`, for which the logD was found to be 1.72. `CN(N=O)C(=O)N(C)c1ccccc1` displayed a logD of 1.58. `CC(C)N(N=O)C(=O)Nc1ccccc1`: the logD worked out at 2.5. Turning to `CCN(N=O)C(=O)Nc1ccccc1`, the logD worked out at 2.25. Same read-out and setting: the same measure for `CN(N=O)C(=O)Nc1ccc(F)cc1`: 1.88. `CN(N=O)C(=O)Oc1cccc2ccccc12` showed a logD of 2.85.

Test in the next data set: not given
Conditions: not given
The source holds these as a separate data set.
Consider `CC(C)NCC(O)c1ccc(NS(C)(=O)=O)cc1` (centres undefined), for which the logP was 0.53. Same read-out and setting: the same measure for `Cc1ccccc1N1C(=O)c2cc(S(N)(=O)=O)c(Cl)cc2NC1C` (centres undefined): 1.8; for `CCC(=O)C(CC(C)N(C)C)(c1ccccc1)c1ccccc1` (centres undefined): 3.93; for `COc1ccc(CCN(C)CCCC2(c3ccc(OC)c(OC)c3)S(=O)(=O)CCCS2(=O)=O)cc1OC`: 2.6. Turning to `CCN(CC)CCNC(=O)c1ccc(NS(C)(=O)=O)cc1`, the logP worked out at 1.36. Still for that read-out and setting: the same measure for `Cc1ccccc1OCC(O)CNCCOc1ccc(C(N)=O)cc1` (centres undefined): 2.19.

Test in the next data set: not given
Conditions: not given
This is another data set of the same source.
`c1ccc2c(c1)Cc1cccnc1-2` displayed a logP of 2.78. Still for that read-out and setting: the same measure for `c1ccc2nc3ccc4ccccc4c3cc2c1`: 4.27. On the same count and under the same terms, the same measure for `c1ccc2c(c1)ccc1nc3ccc4ccccc4c3cc12`: 5.31. For `c1ccc2c(c1)ccc1nc3c(ccc4ccccc43)cc12`, the logP came out at 5.38.

Turning to `c1cnc2c(c1)cc1ccc3cccc4ccc2c1c34`, the logP was 5.35.

In turn, `c1ccc2c(c1)cnc1ccccc12` returned a logP of 3.3.

A further data set in a line: method code …, from Wiggins, H.; Karcher, A.; Michael Wilson, J.; Robb, I. (2008). Determining Octanol/Water Partitioning Coefficients for Industrial Surfactants. Proc. 15th Annual International Petroleum & Biofuels ….
Conditions: not given
In turn, `CCCCCCCCOCCOCCOCCO` yielded a logP of 2.84. On the same count and under the same terms, the same measure for `CCCCCCCCOCCOCCOCCOCCOCCO`: 2.43.

In the case of `CCCCCCOCCOCCOCCOCCOCCO`, the logP came to 1.24. For the compound `CCCCCCCCCCOCCOCCOCCOCCOCCOCCOCCOCCO`, the logP worked out at 3.09. `CCCCCCCCCCCCOCCOCCOCCOCCOCCOCCOCCO` returned a logP of 4.59.

Take `CCCCCCCCCCCCCCOCCOCCOCCOCCOCCOCCOCCOCCO`: the logP amounted to 5.65.

A further data set can be described thus: method code SF-HPLC, from Peips, M.; Sikk, P.; Aaviksaar, A. (1986). Hydrophobic interaction in the active sites of serine proteases from thermoactinomycetes. Org. React., 23(3)261-271. The note with it: pH 2.2.
Compound `COC(=O)[C@H](CC(C)C)NC(C)=O` displayed a logD of 0.84. Still for that read-out and setting: the same measure for `CCCCCCC(NC(C)=O)C(=O)OC` (centres undefined): 1.7; for `COC(=O)[C@H](C)NC(C)=O`: -0.57. In turn, `CCCCC(NC(C)=O)C(=O)O` (centres undefined) gave a logD of 0.33.

Take `COC(=O)[C@H](Cc1ccc(O)cc1)NC(C)=O`: the logD came out at 0.33. Take `CCC(NC(C)=O)C(=O)OC` (centres undefined): the logD is -0.17.

The nature of a further data set: method code SF-AS, from Kishida, K.; Otori, T. (1980). A quantitative study on the relationship between transcorneal permeability of drugs and their hydrophobicity. Jpn J Ophthalmol, 24(3)251-259. As to conditions: pH 7.4.
The compound `CCc1ccc(N)cc1` displayed a logD of 1.96. For the compound `Nc1ccc(CO)cc1`, the logD was -0.22.

In turn, `Nc1ccc(CCO)cc1` gave a logD of 0.1. `COc1ccc(OC)c(N)c1` had a logD of 1.2. Still for that read-out and setting: the same measure for `CC(=O)c1ccc(N)cc1`: 0.83; for `CCOc1ccc(N)cc1`: 1.24; for `Nc1ccc(Cc2ccc(N)cc2)cc1`: 1.62.
